Measured values: ChEMBL document CHEMBL1201862, “PubChem BioAssay data set” (2004)
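Test compounds were applied to cells in 96-well plates for 48 hours at 5 doses. GI50: concentration for 50% inhibition of growth.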 Activity calls are given as the source filed them. No stated cut-off is given here; in the data, active = GI50 up to about 1.1 µM and inactive = higher.

What was measured:
Experiment in all cases: NCI-60 cell line screen, 48 h
U-251 = test system: U-251
SK-OV-3 = test system: SK-OV-3
OVCAR-5 = test system: OVCAR-5
SNB-19 = test system: SNB-19
Hs-578T = test system: Hs-578T
TK-10 = test system: TK-10
OVCAR-4 = test system: OVCAR-4
NCI-H23 = test system: NCI-H23
RXF 393 = test system: RXF 393
UACC-257 = test system: UACC-257
HCC 2998 = test system: HCC 2998
NCI-H522 = test system: NCI-H522
HOP-92 = test system: HOP-92
SN12C = test system: SN12C
SNB-75 = test system: SNB-75
MOLT-4 = test system: MOLT-4
NCI-H226 = test system: NCI-H226
CCRF-CEM = test system: CCRF-CEM

Measured: GI50

C[N+]1(CC[N+]2(C)CCCC2c2cccnc2)CCCC1c1cccnc1 (stereo unspecified)
inactive: U-251 60 µM | SK-OV-3 > 100 µM | OVCAR-5 > 100 µM | SNB-19 > 100 µM | Hs-578T > 100 µM | TK-10 > 100 µM | OVCAR-4 > 100 µM | NCI-H23 > 100 µM | RXF 393 > 100 µM | UACC-257 76.2 µM | HCC 2998 > 100 µM | NCI-H522 > 100 µM | HOP-92 > 100 µM | SN12C > 100 µM | SNB-75 > 100 µM | MOLT-4 2.75 µM

C/C(=N\N=C(N)N)c1c(C(=O)OCCCCCCOC(=O)c2nc3sccn3c2/C(C)=N/N=C(N)N)nc2sccn12
inactive: U-251 37.7 µM | OVCAR-5 > 100 µM | SNB-19 63.8 µM | Hs-578T > 100 µM | TK-10 22.8 µM | OVCAR-4 > 100 µM | NCI-H226 > 100 µM | NCI-H23 46.1 µM | CCRF-CEM 20.5 µM | RXF 393 > 100 µM | UACC-257 > 100 µM | HCC 2998 > 100 µM | NCI-H522 > 100 µM | HOP-92 > 100 µM | SN12C > 100 µM | SNB-75 44.7 µM | MOLT-4 32.2 µM

CC(=O)c1cc2ccccc2oc1=O [3-ACETYLCOUMARIN]
inactive: U-251 > 100 µM | OVCAR-5 > 100 µM | SNB-19 > 100 µM | Hs-578T > 100 µM | TK-10 > 100 µM | OVCAR-4 > 100 µM | NCI-H226 > 100 µM | NCI-H23 > 100 µM | CCRF-CEM > 100 µM | RXF 393 > 100 µM | UACC-257 > 100 µM | HCC 2998 > 100 µM | NCI-H522 > 100 µM | HOP-92 48.8 µM | SN12C > 100 µM | SNB-75 > 100 µM | MOLT-4 > 100 µM

NNC(=O)c1c(Cl)c(Cl)c(Cl)c(Cl)c1-c1nc2ccccc2[nH]1
inactive: SK-OV-3 15.7 µM | OVCAR-5 36.7 µM | SNB-19 19.6 µM | Hs-578T 18.1 µM | TK-10 21.6 µM | NCI-H226 16.8 µM | NCI-H23 15.6 µM | CCRF-CEM 12.5 µM | RXF 393 3.49 µM | UACC-257 12.6 µM | HCC 2998 8.63 µM | NCI-H522 13.4 µM | HOP-92 18.5 µM | SN12C 27 µM | SNB-75 12.5 µM | MOLT-4 4.66 µM

C(=N\c1cc2cc(Sc3ccccc3)ccc2[nH]1)/c1ccccc1
inactive: SNB-19 > 12.5 µM | Hs-578T > 12.5 µM | OVCAR-4 > 12.5 µM | NCI-H23 > 12.5 µM | CCRF-CEM > 12.5 µM | RXF 393 > 12.5 µM | UACC-257 > 12.5 µM | HCC 2998 6.41 µM | NCI-H522 > 12.5 µM | HOP-92 > 12.5 µM | SN12C > 12.5 µM | SNB-75 > 12.5 µM | MOLT-4 > 12.5 µM

Clc1ccc(CSC2=NCCN2)cc1Cl
inactive: U-251 12.5 µM | SK-OV-3 24.6 µM | OVCAR-5 19.3 µM | SNB-19 32.3 µM | Hs-578T 19.8 µM | TK-10 16.7 µM | OVCAR-4 11.6 µM | NCI-H226 20.7 µM | NCI-H23 15.6 µM | CCRF-CEM 5.36 µM | RXF 393 14.2 µM | UACC-257 11.1 µM | HCC 2998 15.2 µM | NCI-H522 4.5 µM | HOP-92 3.3 µM | SN12C 15.2 µM | MOLT-4 11.2 µM

N#CC(=C1CCCCC1)c1nc2ccccc2o1
inactive: U-251 57.9 µM | SK-OV-3 > 100 µM | OVCAR-5 > 100 µM | SNB-19 > 100 µM | Hs-578T 58.7 µM | TK-10 > 100 µM | OVCAR-4 52.8 µM | NCI-H226 56.2 µM | NCI-H23 66.8 µM | CCRF-CEM 49.1 µM | RXF 393 > 100 µM | UACC-257 > 100 µM | HCC 2998 50 µM | NCI-H522 20.6 µM | HOP-92 34.5 µM | SN12C > 100 µM | MOLT-4 > 100 µM

COc1ccc(C2=Nc3cc(C)c(C)cc3NC(c3ccccc3)C2)cc1 (stereo unspecified)
inactive: U-251 > 100 µM | SK-OV-3 > 100 µM | OVCAR-5 > 100 µM | SNB-19 > 100 µM | Hs-578T > 100 µM | TK-10 > 100 µM | OVCAR-4 > 100 µM | NCI-H226 > 100 µM | NCI-H23 > 100 µM | CCRF-CEM 17.3 µM | RXF 393 > 100 µM | UACC-257 34.4 µM | HCC 2998 > 100 µM | NCI-H522 30.8 µM | HOP-92 24.1 µM | SN12C > 100 µM | MOLT-4 16.3 µM

COC(=O)C1(C)CCc2c(ccc3ccccc23)C1=O (stereo unspecified)
inactive: U-251 46.5 µM | SK-OV-3 71.1 µM | OVCAR-5 > 100 µM | SNB-19 45.2 µM | Hs-578T 47.2 µM | TK-10 31 µM | NCI-H23 51.6 µM | CCRF-CEM 37.3 µM | RXF 393 25 µM | UACC-257 24.5 µM | HCC 2998 36.1 µM | NCI-H522 24.9 µM | HOP-92 45.4 µM | SN12C 44.7 µM | SNB-75 44.8 µM | MOLT-4 34.8 µM
